Reference: publication PMC9032934 (Pharmaceutics, 2022)
Each block holds one molecule with its values, some of them ahead of it. Non-standard residues stand in square brackets, D forms with d. Residues, ends and D or L forms follow the SMILES beside them.

How the values were obtained:
Caco-2 cells [1] = experiment: Cellular uptake of Tamra-labelled peptides by flow cytometry, Caco-2; assay type: cell-based, human; conditions: for decrease in transfection efficiency with 10% serum / decrease in transfection efficiency with 20% serum: Tamra-peptides 5 µM, 3 h; for decrease in transfection efficiency with 10% serum: OptiMEM + 10% (v/v) FBS vs 0%; for decrease in transfection efficiency with 20% serum: OptiMEM + 20% (v/v) FBS vs 0%
Protocol: (§1) Next, 48 h post-seeding, cells were rinsed twice with D-PBS and then incubated with 500 μL of Tamra-CPP-iCAL36 solution at the indicated conditions.
(§2) Standard transfection and kinetic measurements.
(§3) Transfection in the presence of serum.

Calu-3 cells = experiment: Cellular uptake of Tamra-labelled peptides by flow cytometry, Calu-3; assay type: cell-based, human
Protocol: as §1, §2, §3

Caco-2 cells [2] = experiment: Cell viability by DAPI labeling in flow cytometry, Caco-2; conditions: CPZ 20 μM, NYS 50 μM, MBCD 5 mM, compared to non-treated cells (80 ± 10%)
TatRI-iCAL36 = target: T1, TatRI-iCAL36 (N-terminal D-amino acid retro-inverso Tat (qpprrrqrrkkrg)); experiment: fluorescence polarization
T1 chain: ANSRWPTSII

Molecule: GRKKRRQRRRPPQ-ANSRWPTSII (GRKKRRQRRRPPQANSRWPTSII) [Tat-iCAL36, Tat cell-penetrating peptide conjugated to the N-terminus of iCAL36]
- increase in signal intensity (internalization) with longer incubation time (4.5 h) (Calu-3 cells): ~ 5.7 fold

Molecule: GALFLGWLGAAGSTMGAWSQPKKKRKV-ANSRWPTSII [MPG-iCAL36, MPG cell-penetrating peptide conjugated to iCAL36]
- cellular internalization (Tamra fluorescence), comparison between peptides (Caco-2 cells [1]; Tamra-labelled peptides 1 µM or 5 µM in OptiMEM, […], 37 °C, trypsinization, mean ± SD, n = 4): superior to Tat-iCAL36 and its analogs
- decrease in transfection efficiency with 10% serum (Caco-2 cells [1]; 37 °C, n = 4): ~ 30%
- decrease in transfection efficiency with 20% serum (Caco-2 cells [1]; 37 °C, n = 4): ~ 50%
- cellular internalization (Tamra fluorescence), comparison between peptides (Calu-3 cells; Calu-3, Tamra-labelled peptides 1 µM or 5 µM in OptiMEM, […], 37 °C, trypsinization, flow cytometry, mean ± SD, n = 4): superior to Tat-iCAL36 and its analogs
- decrease in transfection efficiency with 10% serum (Calu-3 cells; Calu-3, Tamra-peptides 5 µM, 3 h, OptiMEM + 10% (v/v) FBS vs 0%, 37 °C, flow cytometry, n = 4): ~ 20%
- decrease in transfection efficiency with 20% serum (Calu-3 cells; Calu-3, Tamra-peptides 5 µM, 3 h, OptiMEM + 20% (v/v) FBS vs 0%, 37 °C, flow cytometry, n = 4): ~ 30%

Molecule: C[C@@H]1[C@H](O)[C@@H](C)/C=C/C=C/CC/C=C/C=C/C=C/C=C/C(O[C@H]2O[C@H](C)[C@@H](O)[C@H](N)[C@@H]2O)CC2O[C@](O)(CC(O)C(O)CCC(O)CC(O)CC(O)CC(=O)O[C@H]1C)CC(O)C2C(=O)O (some centres unmarked) [NYS, nystatin]
- loss of viability (slight cytotoxicity) by endocytosis inhibitors (Caco-2 cells [2]): 5–20%

Results, then the molecule that gave them:

- intracellular fluorescence without vs with chloroquine, peptide at 1 µM (Caco-2 cells [1]; Tamra-TatRI-iCAL36 1 µM, CQ 100 µM, n = 4, one-way ANOVA): no statistical difference
- decrease in transfection efficiency with 10% serum (Caco-2 cells [1]; 37 °C, n = 4): no significant difference
- decrease in transfection efficiency with 20% serum (Caco-2 cells [1]; 37 °C, n = 4): 18%
- increase in signal intensity (internalization) with longer incubation time (4.5 h) (Caco-2 cells [1]; Tamra-peptides in OptiMEM, 4.5 h vs […], 37 °C, n = 3 (Figure S2A)): ~ 3 fold
Molecule: CC[C@H](C)[C@H](NC(=O)[C@@H](NC(=O)[C@H](CO)NC(=O)[C@@H](NC(=O)[C@@H]1CCCN1C(=O)[C@H](Cc1c[nH]c2ccccc12)NC(=O)[C@H](CCCNC(=N)N)NC(=O)[C@H](CO)NC(=O)[C@H](CC(N)=O)NC(=O)[C@H](C)NC(=O)CNC(=O)[C@@H](CCCNC(=N)N)NC(=O)[C@@H](CCCCN)NC(=O)[C@@H](CCCCN)NC(=O)[C@@H](CCCNC(=N)N)NC(=O)[C@@H](CCCNC(=N)N)NC(=O)[C@@H](CCC(N)=O)NC(=O)[C@@H](CCCNC(=N)N)NC(=O)[C@@H](CCCNC(=N)N)NC(=O)[C@@H](CCCNC(=N)N)NC(=O)[C@H]1CCCN1C(=O)[C@H]1CCCN1C(=O)[C@H](N)CCC(N)=O)[C@@H](C)O)[C@@H](C)CC)C(=O)O [TatRI-iCAL36] (H-[dQ][dP][dP][dR][dR][dR][dQ][dR][dR][dK][dK][dR]GANSRWPTSII-OH)

- Ki (TatRI-iCAL36): > 5 mM
B1: NHERF2 PDZ2 (N2P2) PDZ2 (protein)
chain: LRPRLCHLRKGPQGYGFNLHSDKSRPGQYIRSVDPGSPAARSGLRAQDRLIEVNGQNVEGLRHAEVVASIKAREDEARLLVVDPETD

- Ki (TatRI-iCAL36): > 5 mM
B2: NHERF2 PDZ1 (N2P1) PDZ1 (protein)
chain: RPRLCRLVRGEQGYGFHLHGEKGRRGQFIRRVEPGSPAEAAALRAGDRLVEVNGVNVEGETHHQVVQRIKAVEGQTRLLVVDQETD
